Like-named read-outs stand apart in the source and are kept apart here.
Columns and labels:
Assay type in all cases: biochemical
KDM4C (JMJD2C) = target: T1, KDM4C (JMJD2C) (Homo sapiens, UniProt Q9H3R0); assay: Histone lysine demethylase AlphaLISA assay, KDM4C
T1 construct: KDM4C; BRIC, Denmark; 1-349; E. coli; host or cells: E. coli
T1 sequence (Q9H3R0 1-349): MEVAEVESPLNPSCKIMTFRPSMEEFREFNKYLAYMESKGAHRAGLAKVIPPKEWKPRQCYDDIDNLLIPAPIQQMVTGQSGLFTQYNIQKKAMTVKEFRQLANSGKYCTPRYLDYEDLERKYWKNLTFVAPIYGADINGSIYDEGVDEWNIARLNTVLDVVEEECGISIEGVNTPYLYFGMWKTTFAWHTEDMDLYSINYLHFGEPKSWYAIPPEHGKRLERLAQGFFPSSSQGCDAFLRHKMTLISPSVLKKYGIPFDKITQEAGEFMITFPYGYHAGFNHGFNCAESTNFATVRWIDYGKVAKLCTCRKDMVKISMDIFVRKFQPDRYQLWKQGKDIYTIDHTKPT
Summary of the method: (§1)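 Enzyme was preincubated in buffer (50 mM Hepes pH 7.4-8.0, 0.003-0.01% Tween-20, 0.1% BSA, 5 μM (NH4)2Fe(SO4)2), then added to compound in DMSO and incubated 10 minutes before substrate. After reaction at room temperature, acceptor and streptavidin donor beads were added and AlphaLISA signal read.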

KDM5B (PLU-1) = target: T2, KDM5B (PLU-1) (Homo sapiens, UniProt Q9UGL1); assay: Histone lysine demethylase AlphaLISA assay, KDM5B
T2 construct: BRIC; 1-809; E. coli; host or cells: E. coli
T2 sequence (Q9UGL1 1-809): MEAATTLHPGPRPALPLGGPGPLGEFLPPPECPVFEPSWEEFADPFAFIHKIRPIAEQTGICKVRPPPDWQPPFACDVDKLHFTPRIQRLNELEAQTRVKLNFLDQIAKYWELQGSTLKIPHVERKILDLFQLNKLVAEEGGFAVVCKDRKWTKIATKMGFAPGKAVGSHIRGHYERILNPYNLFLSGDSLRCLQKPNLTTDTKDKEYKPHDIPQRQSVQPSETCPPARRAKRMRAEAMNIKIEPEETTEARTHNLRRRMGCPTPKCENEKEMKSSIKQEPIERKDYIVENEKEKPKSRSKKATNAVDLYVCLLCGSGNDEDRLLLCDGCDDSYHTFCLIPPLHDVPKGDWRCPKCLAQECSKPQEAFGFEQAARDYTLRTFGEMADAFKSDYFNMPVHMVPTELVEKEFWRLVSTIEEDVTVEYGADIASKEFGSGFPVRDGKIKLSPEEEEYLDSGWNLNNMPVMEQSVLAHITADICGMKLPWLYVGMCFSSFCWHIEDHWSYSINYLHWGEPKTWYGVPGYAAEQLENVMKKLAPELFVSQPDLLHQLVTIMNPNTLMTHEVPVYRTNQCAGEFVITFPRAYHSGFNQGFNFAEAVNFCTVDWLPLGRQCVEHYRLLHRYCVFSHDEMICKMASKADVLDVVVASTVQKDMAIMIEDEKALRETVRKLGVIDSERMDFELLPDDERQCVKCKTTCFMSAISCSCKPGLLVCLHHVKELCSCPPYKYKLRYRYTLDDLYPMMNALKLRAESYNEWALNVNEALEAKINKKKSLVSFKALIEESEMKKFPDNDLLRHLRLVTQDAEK
Summary of the method: as §1

PHF8 (KDM7) = target: T3, PHF8 (KDM7) (Homo sapiens, UniProt Q9UPP1); assay: Histone lysine demethylase AlphaLISA assay, PHF8
T3 construct: KDM7 (PHF8); BRIC; 1-1322; Bac
Summary of the method: as §1

KDM6A (UTX) = target: T4, KDM6A (UTX) (Homo sapiens, UniProt O15550); assay: Histone lysine demethylase AlphaLISA assay, KDM6A
T4 construct: KDM6A (UTX); BRIC; 919-1401; E. coli; host or cells: E. coli
Summary of the method: as §1

KDM2B (FBXL10) = target: T5, KDM2B (FBXL10) (Homo sapiens, UniProt Q8NHM5); assay: Histone lysine demethylase AlphaLISA assay, KDM2B
T5 construct: KDM2B; BPS,; 1-650; Bac; purchased BPS Bioscience, US; host or cells: baculovirus system
T5 sequence (Q8NHM5 1-650): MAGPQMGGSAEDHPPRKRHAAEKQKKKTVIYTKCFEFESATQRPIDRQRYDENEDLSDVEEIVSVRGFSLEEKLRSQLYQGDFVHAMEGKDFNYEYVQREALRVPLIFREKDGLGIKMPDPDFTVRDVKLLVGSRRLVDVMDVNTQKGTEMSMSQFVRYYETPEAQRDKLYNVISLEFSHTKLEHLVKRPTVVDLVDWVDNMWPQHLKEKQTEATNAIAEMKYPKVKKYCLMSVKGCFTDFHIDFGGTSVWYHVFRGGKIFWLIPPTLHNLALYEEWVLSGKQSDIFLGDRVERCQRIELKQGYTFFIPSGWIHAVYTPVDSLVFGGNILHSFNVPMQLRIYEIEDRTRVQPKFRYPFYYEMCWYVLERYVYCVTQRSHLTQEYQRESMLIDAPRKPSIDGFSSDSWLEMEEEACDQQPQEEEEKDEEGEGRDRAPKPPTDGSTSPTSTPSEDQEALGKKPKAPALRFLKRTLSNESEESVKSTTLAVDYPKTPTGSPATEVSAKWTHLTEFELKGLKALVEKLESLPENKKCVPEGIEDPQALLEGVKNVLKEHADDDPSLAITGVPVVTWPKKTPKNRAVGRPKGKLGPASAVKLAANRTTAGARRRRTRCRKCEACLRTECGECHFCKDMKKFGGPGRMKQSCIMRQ
Summary of the method: as §1

[1] = AlphaLISA assay, read-out: HDME Inhibition KDM4C (IC50)
[2] = AlphaLISA, in vitro, read-out: HDME Inhibition KDM4C
[3] = AlphaLISA, in vitro, read-out: HDME Inhibition PHF8
[4] = AlphaLISA assay, read-out: HDME Inhibition KDM6A (IC50)
[5] = AlphaLISA, in vitro, read-out: HDME Inhibition KDM6A
[6] = AlphaLISA, in vitro, read-out: HDME Inhibition KDM2B
[7] = AlphaLISA, in vitro, read-out: HDME Inhibition KDM5B
[8] = AlphaLISA assay, read-out: HDME Inhibition PHF8 (IC50)
[9] = AlphaLISA assay, read-out: HDME Inhibition KDM5B (IC50)

T4 sequence (O15550 919-1401): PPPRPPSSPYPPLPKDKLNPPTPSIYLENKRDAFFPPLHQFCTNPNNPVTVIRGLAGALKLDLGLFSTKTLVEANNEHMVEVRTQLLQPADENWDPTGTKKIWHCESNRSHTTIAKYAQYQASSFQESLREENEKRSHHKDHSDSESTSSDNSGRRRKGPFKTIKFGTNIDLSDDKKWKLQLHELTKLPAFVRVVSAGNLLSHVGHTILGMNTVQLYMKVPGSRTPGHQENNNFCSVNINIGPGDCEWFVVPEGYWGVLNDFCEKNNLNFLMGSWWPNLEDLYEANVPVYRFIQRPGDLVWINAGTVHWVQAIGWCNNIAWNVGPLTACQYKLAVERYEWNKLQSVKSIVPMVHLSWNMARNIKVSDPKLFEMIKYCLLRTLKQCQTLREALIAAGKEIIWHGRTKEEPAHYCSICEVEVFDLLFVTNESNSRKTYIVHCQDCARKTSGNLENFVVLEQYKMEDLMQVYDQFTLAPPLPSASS
T3 sequence (Q9UPP1 37-440 limits assumed): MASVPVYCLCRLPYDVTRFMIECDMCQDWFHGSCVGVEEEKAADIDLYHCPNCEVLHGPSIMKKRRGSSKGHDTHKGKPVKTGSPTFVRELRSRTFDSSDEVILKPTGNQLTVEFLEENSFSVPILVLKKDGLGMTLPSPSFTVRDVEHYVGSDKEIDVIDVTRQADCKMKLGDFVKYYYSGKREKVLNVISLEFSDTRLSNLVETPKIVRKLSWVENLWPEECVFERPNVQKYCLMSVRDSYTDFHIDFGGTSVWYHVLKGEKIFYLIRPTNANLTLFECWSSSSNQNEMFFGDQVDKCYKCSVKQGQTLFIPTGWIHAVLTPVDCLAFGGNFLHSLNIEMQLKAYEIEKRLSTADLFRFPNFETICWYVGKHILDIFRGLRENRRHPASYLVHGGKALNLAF

Question: For Cc1cc(C(=O)O)cc(CNCc2nccn2CCc2cncnc2)n1 [Compound 26, 2-methyl-6-{[({1-[2-(pyrimidin-5-yl)ethyl]-1H-imidazol-2-yl}methyl)amino]methyl}pyridine-4-carboxylic acid], which IC50 (KDM4C (JMJD2C); [1]) is on record?
Answer: > 10 µM

Question: And the IC50 (KDM4C (JMJD2C); [2])?
Answer: > 10 µM

Question: What about the IC50 (KDM5B (PLU-1)) of the same molecule?
Answer: 3.02 µM

Question: What about the IC50 (PHF8 (KDM7); [3]) of the same molecule?
Answer: 1.03 µM

Question: What about the IC50 (KDM6A (UTX); [4]) of the same molecule?
Answer: > 10 µM

Question: And the IC50 (KDM6A (UTX); [5])?
Answer: > 10 µM

Question: What about the IC50 (KDM2B (FBXL10); [6]) of the same molecule?
Answer: 0.565 µM

Question: For Cc1cc(C(=O)O)cc(CN[C@H]2CCc3cccnc32)n1 [Compound 7, 2-({[(7S)-5H,6H,7H-cyclopenta[b]pyridin-7-yl]amino}methyl)-6-methylpyridine-4-carboxylic acid], which IC50 (KDM4C (JMJD2C); [1]) is on record?
Answer: > 10 µM

Question: And the IC50 (KDM4C (JMJD2C); [2])?
Answer: > 10 µM

Question: And the IC50 (KDM5B (PLU-1); [7])?
Answer: 1.23 µM

Question: And the IC50 (PHF8 (KDM7); [8])?
Answer: > 10 µM

Question: What about the IC50 (PHF8 (KDM7); [3]) of the same molecule?
Answer: > 10 µM

Question: What about the IC50 (KDM6A (UTX); [4]) of the same molecule?
Answer: > 10 µM

Question: And the IC50 (KDM6A (UTX); [5])?
Answer: > 10 µM

Question: What about the IC50 (KDM2B (FBXL10); [6]) of the same molecule?
Answer: 7.1 µM

Question: How did the IC50 (KDM4C (JMJD2C); [1]) turn out when Cc1cc(C(=O)O)cc(CNCc2ncc(C3CCC3)n2Cc2ccc(F)cc2)n1 [Compound 39, 2-{[({5-cyclobutyl-1-[(4-fluorophenyl)methyl]-1H-imidazol-2-yl}methyl)amino]methyl}-6-methyl pyridine-4-carboxylic acid] was run?
Answer: > 10 µM

Question: And the IC50 (KDM4C (JMJD2C); [2])?
Answer: > 10 µM

Question: What about the IC50 (KDM5B (PLU-1); [9]) of the same molecule?
Answer: > 10 µM

Question: And the IC50 (KDM5B (PLU-1); [7])?
Answer: > 10 µM

Question: And the IC50 (PHF8 (KDM7); [3])?
Answer: 0.472 µM

Question: And the IC50 (KDM6A (UTX); [4])?
Answer: > 10 µM

Question: And the IC50 (KDM6A (UTX); [5])?
Answer: > 10 µM

Question: What about the IC50 (KDM2B (FBXL10); [6]) of the same molecule?
Answer: 0.155 µM

Question: How did the IC50 (KDM4C (JMJD2C); [1]) turn out when Cc1cc(C(=O)O)cc(CN[C@H](CO)CC(C)C)n1 [Compound 23, 2-({[(2S)-1-hydroxy-4-methylpentan-2-yl]amino}methyl)-6-methylpyridine-4-carboxylic acid] was run?
Answer: > 10 µM

Question: And the IC50 (KDM4C (JMJD2C); [2])?
Answer: > 10 µM

Question: And the IC50 (KDM5B (PLU-1); [9])?
Answer: > 10 µM

Question: And the IC50 (KDM5B (PLU-1); [7])?
Answer: > 10 µM

Question: And the IC50 (PHF8 (KDM7); [8])?
Answer: > 10 µM

Question: What about the IC50 (PHF8 (KDM7); [3]) of the same molecule?
Answer: > 10 µM

Question: What about the IC50 (KDM6A (UTX); [4]) of the same molecule?
Answer: > 10 µM

Question: What about the IC50 (KDM6A (UTX); [5]) of the same molecule?
Answer: > 10 µM

Question: And the IC50 (KDM2B (FBXL10); AlphaLISA assay, read-out: HDME Inhibition KDM2B (IC50))?
Answer: > 10 µM

Question: What about the IC50 (KDM2B (FBXL10); [6]) of the same molecule?
Answer: > 10 µM

— patent publication US9802941B2, “Compounds and methods for inhibiting histone demethylases” (Gilead Sciences, Inc., priority 2014, dated 2017)
